Measurements published in ChEMBL document CHEMBL4007503, “Easy and rapid preparation of benzoylhydrazides and their diazene derivatives as inhibitors of 15-lipoxygenase” (Bioorg Med Chem Lett, 2017).
Values belong to the molecule of their own block, whether it stands above or below them. Active and inactive are the calls of the source. The calls are words filed in the database; no cut-off is given here.

Key:
Glycine max [1] = test: Inhibition of soybean 15-LOX at 10 uM using linoleic acid as substrate relative to control
[2] = Antioxidant activity assessed as ferric ion reducing activity by measuring Fe2+ levels using Fe3+-TPTZ after 40 mins by FRAP assay; type: functional
[3] = Inhibition of soybean 15-LOX using linoleic acid as substrate; set-up: species or system Glycine max
[4] = Competitive inhibition of soybean 15-LOX using linoleic acid as substrate by Lineweaver-Burk plot analysis; set-up: species or system Glycine max
Glycine max [5] = test: Inhibition of soybean 15-LOX assessed as Km for substrate using linoleic acid as substrate by Lineweaver-Burk plot analysis
Glycine max [6] = test: Inhibition of soybean 15-LOX assessed as Vmax for substrate using linoleic acid as substrate by Lineweaver-Burk plot analysis
Glycine max [7] = test: Potency index, ratio of 4-methyl-2-(4-methylpiperazinyl)-pyrimido[4,5b]benzothiazine IC50 to compound IC50 for soybean 15-LOX
[8] = Antioxidant activity assessed as cupric ion reducing activity after 30 mins by CUPRAC assay; type: functional
[9] = target: T1, Polyunsaturated fatty acid lipoxygenase ALOX15 (Homo sapiens, UniProt P16050); test: Inhibition of 15-LOX in human primary polymorphonuclear leukocytes
T1 sequence (P16050 whole entry): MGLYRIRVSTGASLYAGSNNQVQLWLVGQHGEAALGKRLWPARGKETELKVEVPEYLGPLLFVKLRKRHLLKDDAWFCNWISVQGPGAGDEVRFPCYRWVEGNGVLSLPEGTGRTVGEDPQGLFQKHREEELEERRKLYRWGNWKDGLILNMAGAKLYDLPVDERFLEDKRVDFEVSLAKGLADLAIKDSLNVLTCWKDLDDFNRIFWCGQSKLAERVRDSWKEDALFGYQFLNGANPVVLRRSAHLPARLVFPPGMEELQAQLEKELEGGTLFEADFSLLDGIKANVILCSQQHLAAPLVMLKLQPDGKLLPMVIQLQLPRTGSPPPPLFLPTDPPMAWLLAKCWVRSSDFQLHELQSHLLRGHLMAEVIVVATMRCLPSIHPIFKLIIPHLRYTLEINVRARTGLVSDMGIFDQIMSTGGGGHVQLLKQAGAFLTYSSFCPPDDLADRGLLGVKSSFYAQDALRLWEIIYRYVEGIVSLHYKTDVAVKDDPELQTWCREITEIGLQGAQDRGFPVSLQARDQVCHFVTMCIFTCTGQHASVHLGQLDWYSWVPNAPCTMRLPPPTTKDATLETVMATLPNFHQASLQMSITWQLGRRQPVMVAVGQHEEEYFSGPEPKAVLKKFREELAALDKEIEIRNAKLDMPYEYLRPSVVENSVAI

[10] = target: T1, Polyunsaturated fatty acid lipoxygenase ALOX15; test: Inhibition of thapsigargin-stimulated 15-LOX in human primary polymorphonuclear leukocytes using arachidonic acid as substrate preincubated for 5 mins followed by thapsigargin stimulation for 5 mins by RP-HPLC method

Compound: O=C(/N=N/c1ccc([N+](=O)[O-])cc1)c1ccccc1
inhibition (Glycine max [1]): 34%

Compound: COc1ccc(/N=N/C(=O)c2ccccc2)cc1
inhibition (Glycine max [1]): 19%

Compound: O=C(/N=N/c1ccc(Br)cc1)c1ccccc1
inhibition (Glycine max [1]): 44%

Compound: O=C(/N=N/c1ccccc1)c1ccccc1
inhibition (Glycine max [1]): 87%
IC50 [3]: 6.97 µM

Compound: CC(c1cc2ccccc2s1)N(O)C(N)=O (stereo not given) [ZILEUTON]
IC50 [9]: 0.4 µM

Compound: O=C(/C=C/c1ccc(O)c(O)c1)OCCc1ccccc1 [CAFFEIC ACID PHENETHYL ESTER]
IC50 [10]: 0.13 µM

Continued, in another order:

inhibition (Glycine max [1]): 73%
Compound: COc1ccc(NNC(=O)c2ccccc2)cc1
Activity [2]: Active

inhibition (Glycine max [1]): 80%
IC50 [3]: 9.78 µM
Ki [4]: 3.89 µM
Km (Glycine max [5]): 140 µM
Vmax (Glycine max [6]): 0.57 µM/s
Compound: N#Cc1ccc(/N=N/C(=O)c2ccccc2)cc1

inhibition (Glycine max [1]): 9%
Compound: N#Cc1ccc(NNC(=O)c2ccccc2)cc1

inhibition (Glycine max [1]): 28%
Compound: O=C(NNc1ccc(Br)cc1)c1ccccc1
Activity [2]: Active

inhibition (Glycine max [1]): 93%
IC50 [3]: 5.35 µM
Ratio IC50 (Glycine max [7]): 3.4
Ki [4]: 0.81 µM
Km (Glycine max [5]): 89.6 µM
Vmax (Glycine max [6]): 0.46 µM/s
Compound: Cc1ccc(NNC(=O)c2ccccc2)cc1
Activity [2]: Active

inhibition (Glycine max [1]): 33%
Compound: O=C(NNc1ccccc1)c1ccccc1
Activity [2]: Active
Activity [8]: Active

inhibition (Glycine max [1]): 17%
Compound: O=C(NNc1ccc([N+](=O)[O-])cc1)c1ccccc1

inhibition (Glycine max [1]): 44%
Compound: Cc1ccc(/N=N/C(=O)c2ccccc2)cc1

inhibition (Glycine max [1]): 10%
Compound: NS(=O)(=O)c1ccc(NNC(=O)c2ccccc2)cc1
